In ChEMBL document CHEMBL1201862, “PubChem BioAssay data set” (2004):
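Method: 48-hour compound exposure of cells in 96-well plates, five concentrations, linear interpolation of endpoints. At the GI50, growth is halved.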 Active and inactive are the calls of the source. Rule as the data show it: active = GI50 up to about 1.1 µM and inactive = higher. Where a SMILES comes first, the peptide text is derived from it.

Experiments:
Assay in all cases: NCI anticancer screen, dose series, 48 h
A549 = tested on: A549
ACHN = tested on: ACHN
CCRF-CEM = tested on: CCRF-CEM
COLO 205 = tested on: COLO 205
HL-60 = tested on: HL-60
IGROV-1 = tested on: IGROV-1
LOX IMVI = tested on: LOX IMVI
M14 = tested on: M14
NCI-H460 = tested on: NCI-H460
OVCAR-5 = tested on: OVCAR-5
SW-620 = tested on: SW-620
U-251 = tested on: U-251
UO-31 = tested on: UO-31
HCC 2998 = tested on: HCC 2998
Malme-3M = tested on: Malme-3M
NCI-H522 = tested on: NCI-H522
HCT-116 = tested on: HCT-116

Measured: GI50

O=C1C=C(c2[nH]c3ccccc3c2C2=CC(=O)c3ccccc3C2=O)C(=O)c2ccccc21
inactive: A549 65.3 µM | ACHN 44.9 µM | CCRF-CEM 16.8 µM | COLO 205 > 100 µM | HL-60 21.8 µM | IGROV-1 30.1 µM | LOX IMVI 22.1 µM | M14 68.7 µM | NCI-H460 35.6 µM | OVCAR-5 > 100 µM | SW-620 66.5 µM | U-251 32.8 µM | UO-31 > 100 µM

CN(C)CCC(O)(c1ccccc1)C(O)(CCN(C)C)c1ccccc1 (stereo not given)
inactive: A549 > 100 µM | ACHN > 100 µM | CCRF-CEM > 100 µM | COLO 205 72.9 µM | HCC 2998 > 100 µM | IGROV-1 > 100 µM | M14 17.4 µM | Malme-3M 17.7 µM | NCI-H460 > 100 µM | NCI-H522 > 100 µM | OVCAR-5 > 100 µM | SW-620 > 100 µM | U-251 > 100 µM | UO-31 > 100 µM

CCC(=O)CC(=O)CCC(=O)Nc1cc(C)ccc1C
inactive: A549 > 100 µM | ACHN > 100 µM | CCRF-CEM > 100 µM | HCT-116 > 100 µM | HL-60 > 100 µM | IGROV-1 > 100 µM | LOX IMVI > 100 µM | M14 > 100 µM | Malme-3M > 100 µM | NCI-H460 > 100 µM | NCI-H522 > 100 µM | SW-620 > 100 µM | U-251 > 100 µM | UO-31 > 100 µM

O=C1C(Cl)=C(NCCOCCO)C(=O)c2c(O)ccc(O)c21
inactive: A549 5.75 µM | ACHN 15.4 µM | COLO 205 2.17 µM | HCT-116 2.86 µM | HL-60 3.89 µM | IGROV-1 5.6 µM | LOX IMVI 3.61 µM | M14 11.2 µM | Malme-3M 2.82 µM | NCI-H460 3.36 µM | NCI-H522 1.98 µM | OVCAR-5 19.5 µM | SW-620 3.55 µM | U-251 17 µM | UO-31 16 µM

O=C(Nc1cc(Cl)ccc1Cl)c1cc2cccc(Cl)c2oc1=O
inactive: A549 > 100 µM | ACHN > 100 µM | CCRF-CEM > 100 µM | COLO 205 > 100 µM | HCT-116 > 100 µM | HL-60 > 100 µM | IGROV-1 > 100 µM | LOX IMVI > 100 µM | M14 > 100 µM | Malme-3M > 100 µM | NCI-H460 > 100 µM | NCI-H522 > 100 µM | SW-620 > 100 µM | U-251 > 100 µM

O=C(c1cccs1)N(C(=S)N1CCN(c2ccccn2)CC1)c1ccccc1
inactive: A549 > 100 µM | ACHN > 100 µM | CCRF-CEM > 100 µM | COLO 205 > 100 µM | HCT-116 56.2 µM | HL-60 > 100 µM | IGROV-1 > 100 µM | LOX IMVI > 100 µM | M14 76.7 µM | Malme-3M > 100 µM | NCI-H460 > 100 µM | NCI-H522 36.2 µM | OVCAR-5 > 100 µM | SW-620 > 100 µM | U-251 > 100 µM | UO-31 39.2 µM

CCC(C)C1NC(=O)C2CCCN2C(=O)CNC(=O)C(C)NC(=O)C(Cc2ccccc2)NC(=O)C(C(C)C)NC1=O (stereo not given) (cyclo(GPIVFA); configuration not given here)
inactive: A549 > 100 µM | ACHN > 100 µM | COLO 205 > 100 µM | HCC 2998 > 100 µM | HCT-116 > 100 µM | IGROV-1 > 100 µM | LOX IMVI > 100 µM | M14 > 100 µM | Malme-3M > 100 µM | NCI-H460 > 100 µM | OVCAR-5 > 100 µM | SW-620 > 100 µM | U-251 > 100 µM | UO-31 > 100 µM
